From article PMC6100043, “Development of Thiophene Compounds as Potent Chemotherapies for the Treatment of Cutaneous Leishmaniasis Caused by Leishmania major” (Molecules : A Journal of Synthetic Chemistry and Natural …, 2018)
Read-outs that look alike come from different tables or passages of the source.

Assays:
[1] = tested on: L. major-luc promastigotes; assay: Luciferase assay, viability of L. major-luc promastigotes; assay type: cell-based, Leishmania major; conditions: 72 h at 28 °C, 2 × 10^6 promastigotes per mL, luciferase activity
[2] = Mammalian cell cytotoxicity (alamarBlue for 5A; PI/Hoechst HCIA for 5D, 5E) in IPΦ; conditions: BALB/c, mouse, intraperitoneal mouse macrophages (IPΦ)
[3] = tested on: intraperitoneal mouse macrophages (IPΦ); assay: as above; conditions: for S.I. IPΦ (CC50 mammalian cells)/(EC50 in L. major-luc promastigotes): IPΦ vs L. major-luc promastigotes
[4] = Mammalian cell cytotoxicity (alamarBlue for 5A; PI/Hoechst HCIA for 5D, 5E) in LLC-MK2; conditions: rhesus monkey, LLC-MK2 kidney epithelial cells
[5] = tested on: monkey kidney cells (LLC-MK2); assay: as above; conditions: for S.I. LLC-MK2 (CC50 mammalian cells)/(EC50 in L. major-luc promastigotes): LLC-MK2 vs L. major-luc promastigotes
[6] = tested on: L. major intracellular amastigotes; assay: High-Content Imaging Assay, proliferation of intracellular amastigotes in infected IPΦ; assay type: cell-based, Leishmania major; conditions: for number of infected cells compared to control treated with 1% DMSO: 2.5 µM, infected IPΦ; for number of infected cells compared to control treated with 1% DMSO / inhibition at 0.625 µM: 48 h; for inhibition at 0.625 µM: Leishmania major, read-out: inhibition of the proliferation of intracellular amastigotes
L. major promastigotes = assay: Measurement of reactive oxygen species levels (H2DCFDA); assay type: cell-based, Leishmania major; conditions: 5D at EC50, 24 h incubation + 7 h reading (31 h), H2DCFDA 10 µM
[7] = parameters: method as in PMID 25365529, PMID 26230675; conditions: cited from earlier work
[8] = read-out: EC50 Leishmania major-luc promastigotes

Compound | EC50 ([1]; Leishmania major, 72 h) [µM] | CC50 at 48 h [2] [µM] | S.I. IPΦ (CC50 mammalian cells)/(EC50 in L. major-luc promastigotes) [3] | CC50 at 72 h [4] [µM] | also measured
CCOC(=O)c1c(NC(=O)c2ccc(C(F)(F)F)cc2)sc2c1CC(C)(C)NC2(C)C [Compound 5A, Ethyl 5,5,7,7-tetramethyl-2-(4-(trifluoromethyl)benzamido)-4,5,6,7-tetrahydrothieno[2,3-c]pyridine-3-carboxylate] | ~0.34 | ~10.4 | 30.50 | 17.7 ± 1.12 | EC50 [1, 8]: ~0.341 µM; cytotoxicity for IPΦ ([3]; at 5 and 10 µM, in HCIA of infected IPΦ, 48 h): cytotoxic; S.I. LLC-MK2 (CC50 mammalian cells)/(EC50 in L. major-luc promastigotes) [5]: 52.85
CCOC(=O)c1c(NC(=O)c2ccccc2C(F)(F)F)sc2c1CC(C)(C)NC2(C)C [Compound 5B, Ethyl-5,5,7,7-tetramethyl-2-(2-(trifluoromethyl)benzamido)-4,5,6,7-tetrahydrothieno[2,3-c]pyridine-3-carboxylate] | 5.98 ± 1.72 | – | – | – | –
CCOC(=O)c1c(NC(=O)c2cccc(C(F)(F)F)c2F)sc2c1CC(C)(C)NC2(C)C [Compound 5D, Ethyl-2-(2-fluoro-3-(trifluoromethyl)benzamido)-5,5,7,7-tetramethyl-4,5,6,7-tetrahydrothieno[2,3-c]-pyridine-3-carboxylate] | – | 27.9 ± 3.19 | 310 | > 80 | number of infected cells compared to control treated with 1% DMSO [6]: reduced number of infected cells; inhibition at 0.625 µM [6]: > 75%; decrease of the proliferation of the parasite (intracellular amastigotes) ([6]; infected murine macrophages, concentration not given): 80%; ROS levels, fold higher compared to vehicle control 1% DMSO (L. major promastigotes): 14.5 fold; selectivity compared with parent compound 5A ([3]; fold higher than 5A): 10 fold; toxicity against LLC-MK2 ([5]; at concentrations up to 80 µM, 72 h): did not display perceptible toxicity
CCOC(=O)c1c(NC(=O)c2ccc(F)c(C(F)(F)F)c2)sc2c1CC(C)(C)NC2(C)C [Compound 5E, Ethyl-2-(4-fluoro-3-(trifluoromethyl)benzamido)-5,5,7,7-tetramethyl-4,5,6,7-tetrahydrothieno[2,3-c]-pyridine-3-carboxylate] | 0.78 ± 0.11 | 16.6 ± 1.52 | 21.27 | 80 ± 4.45 | number of infected cells compared to control treated with 1% DMSO [6]: reduced number of infected cells; inhibition at 0.625 µM [6]: > 50%; S.I. LLC-MK2 (CC50 mammalian cells)/(EC50 in L. major-luc promastigotes) [5]: 102.56
CC1(C)Cc2c(sc(NC(=O)c3cc(Cl)ccc3C(F)(F)F)c2C(=O)O)C(C)(C)N1 [Compound 5F, 2-(5-chloro-2-(trifluoromethyl)benzamido)-5,5,7,7-tetramethyl-4,5,6,7-tetrahydrothieno[2,3-c]pyridine-3-carboxylic acid] | > 12.5 | – | – | – | –
CC1(C)Cc2c(sc(NC(=O)c3ccccc3C(F)(F)F)c2C(=O)O)C(C)(C)N1 [Compound 5G, 5,5,7,7-tetramethyl-2-(2-(trifluoromethyl)benzamido)-4,5,6,7-tetrahydrothieno[2,3-c]pyridine-3-carboxylic acid] | > 12.5 | – | – | – | –
COC(=O)c1c(NC(=O)c2ccc(F)c(C(F)(F)F)c2)sc2c1CC(C)(C)NC2(C)C [Compound 5H, Methyl-2-(4-fluoro-3-(trifluoromethyl)benzamido)-5,5,7,7-tetramethyl-4,5,6,7-tetrahydrothieno[2,3-c]-pyridine3-carboxylate] | 3.05 ± 0.47 | – | – | – | –
COC(=O)c1c(NC(=O)c2ccccc2C(F)(F)F)sc2c1CC(C)(C)NC2(C)C [Compound 5I, Methyl-5,5,7,7-tetramethyl-2-(2-(trifluoromethyl)benzamido)-4,5,6,7-tetrahydrothieno[2,3-c]pyridine-3-carboxylate] | 5.5 ± 1.8 | – | – | – | –
CCCCCCCCCCCCCCCCOP(=O)([O-])OCC[N+](C)(C)C [Miltefosine, miltefosine] | – | – | – | – | half-life [7]: 150 h
Ethyl-5,5,7,7-tetramethyl-2-(2-(trifluoromethyl)benzamido)-4,5,6,7-tetrahydrothieno[2,3-c]pyridine-3-carboxylate [Compound 5C] | – | – | – | – | EC50 [1, 8]: 4.73 ± 0.69 µM
